According to patent US10464925B2, “Methods to induce targeted protein degradation through bifunctional molecules” (Dana-Farber Cancer Institute, Inc., priority 2015, dated 2019):
Where two headings read alike, the source gives them in different places.

Legend:
CRBN-DDB1 = molecular target: T1, CRBN-DDB1 (Homo sapiens, UniProt Q96SW2); experiment: CRBN-DDB1 Ligand-Displacement AlphaScreen Assay (thalidomide competition); assay type: binding; conditions: biotin-thalidomide competition; read-out: THAL ALPHA (IC50);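 also: streptavidin donor and nickel chelate acceptor bead proximity signal after 30 min incubation, normalized with no-protein background as 0% and DMSO wells as 100% activity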
T1 construct: 6xHis (given for the complex); made in house; host or cells: Sf9 cells (Invitrogen), pFastBac

BRD4 [1] = molecular target: T2, BRD4 (Homo sapiens, UniProt O60885); experiment: BRD4 AlphaScreen; assay type: binding; set-up: […]; His tag (inferred from capture on Ni-coated acceptor beads)
CUTL1 = experiment: Cell viability, ATPlite 48 hours, CUTLL1; assay type: cell-based; conditions: CUTL1 cells
NGP = experiment: Cell viability, ATPlite 72 hours; assay type: cell-based; conditions: read-out: IC50 (nM) NGP
BRD4 [2] = molecular target: T2, BRD4; experiment: BRD4 Cell Western (BRD4 levels in 293T cells, LiCOR); assay type: cell-based; set-up: BRD4 levels in the cells after the dBET treatment; endogenous in cells
[3] = molecular target: T3, BRD4 adjoined to nanoluciferase (Nluc) (Homo sapiens, UniProt O60885+Q96SW2); experiment: BRD4 Dual Luciferase Assay; assay type: cell-based; conditions: for Emax: read-out: BRD4− Emax (percent remaining);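 as to all read-outs here: transduced reporter cells exposed to compound for 4 h, then Nluc and Fluc luminescence read, each normalized to DMSO controls and expressed as Nluc/Fluc ratio per well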
T3 construct: expressed in transfected cells

797 = experiment: Cell viability, 797 cells (Table 4); assay type: cell-based; conditions: read-out: IC50 (nM) 797
CRBN = molecular target: T4, CRBN (Homo sapiens, UniProt Q96SW2); experiment: Intracellular CRBN Engagement Assay (dFKBP7 rescue); assay type: cell-based; conditions: competition with 80 nM dFKBP7, 3 hours; read-out: FKBP7 rescue (EC50)
T4 construct: endogenous in cells

BRDT = BRDT (Homo sapiens, UniProt Q58F21); experiment: BRDT IC50 (Table 4); assay type: binding
DND41 = experiment: Cell viability, ATPlite 48 hours, DND41; assay type: cell-based; conditions: DND41 cells
MOLT4 = experiment: Cell viability, ATPlite 48 hours, MOLT4; assay type: cell-based; conditions: Homo sapiens, MOLT-4; MOLT4 cells
PLK1 = PLK1 (Homo sapiens, UniProt P53350); experiment: PLK1 IC50 (Table 4); assay type: biochemical
MV4; 11 = experiment: Cell viability, ATPlite 48 hours, MV4-11; assay type: cell-based; conditions: Homo sapiens, 11 cells
BRD4 [4] = molecular target: T2, BRD4; experiment: Immunoblot for BRD4 in MV4-11 cells; assay type: cell-based; conditions: MV4-11, 24 h
[5] = molecular target: T5, fusion of mutant FKBP12 to nanoluciferase (Homo sapiens, UniProt P62942+Q96SW2, F37V); experiment: FKBP Dual Luciferase Assay, wild-type 293FT, mutant FKBP12 (36V); assay type: cell-based; conditions: 4 hours; read-out: Max Degradation (dual luciferase, %) FKBP 36V
T5 construct: expressed in transfected cells

[6] = molecular target: T6, fusion of FKBP12 to nanoluciferase (Homo sapiens, UniProt P62942+Q96SW2); experiment: FKBP Dual Luciferase Assay, wild-type 293FT, FKBP12; assay type: cell-based; conditions: 4 hours; for Dmax: read-out: Max Degradation (dual luciferase, %) FKBP
T6 construct: expressed in transfected cells

FKBP12 (36V) = FKBP12 (36V) (Homo sapiens, UniProt P62942, F37V); experiment: FKBP12 (36V) Ligand-Displacement AlphaScreen Assay; assay type: binding; conditions: biotin-SLF displacement, read-out: IC50 (nM) FKBP 36V
[7] = HEK-293T; read-out: BRD4 max degradation(%) Cell Western
[8] = 4 hours, read-out: max degradation (dual luc)
[9] = read-out: BRD4 max degradation(%) Dual Luciferase

| Dmax (BRD4 [2]; [7]) [%] | Dmax [3, 8] [%] | Emax ([3]; BRD4 remaining at Emax) [%] | Dmax [3, 9] [%] | IC50 (BRDT; read-out: IC50 (nM) BRDT) [nM] | IC50 (MOLT4) [nM] | IC50 (MV4; 11) [nM] | Dmax [5] [%] | Dmax [6] [%] | IC50 (FKBP12 (36V)) [nM] | Structure (SMILES) | IC50 (CUTL1) [nM] | IC50 (NGP; NGP cells, Table 4) [nM] | IC50 797 [nM] | IC50 (DND41) [nM] | further results |
| --- | --- | --- | --- | --- | --- | --- | --- | --- | --- | --- | --- | --- | --- | --- | --- |
| 57 | 36.5 | 65.4 | 37 | 28 | 1920 |  |  |  |  | Cc1sc2c(c1C)C(c1ccc(Cl)cc1)=N[C@@H](CC(=O)NCCCN1CCN(C(=O)CCCCCNC(=O)COc3cccc4c3C(=O)N(C3CCC(=O)NC3=O)C4=O)CC1)c1nnc(C)n1-2 (stereo partly shown) [dBET18] | 2840 | 4960 | 1360 | 1790 | IC50 (CRBN-DDB1): 1.57 nM; IC50 (BRD4 [1]; read-out: BRD4 Alpha (IC50)): 11 nM; IC50 (BRD4 [1]; read-out: IC50 (nM) BRD4): 11 nM; EC50 (CRBN): 749000 nM |
|  |  |  |  | 405 | 192 | 6.3 |  |  |  | CC[C@@H]1C(=O)N(C)c2cnc(Nc3ccc(C(=O)NCCCCNC(=O)COc4cccc5c4C(=O)N(C4CCC(=O)NC4=O)C5=O)cc3OC)nc2N1C1CCCC1 (stereo partly shown) [dBET2] | 81.2 | 156 | 113 | 110 | IC50 (PLK1): 6.15 nM |
|  |  |  |  |  |  |  |  |  |  | O=C1CCC(N2C(=O)c3ccccc3C2=O)C(=O)N1 (stereo not shown) [thalidomide] |  |  |  |  | BRD4 degradation by treatment alone (BRD4 [4]): insufficient to induce BRD4 degradation |
| 41 | 24.8 | 71 | 25 | 52 |  | 28 |  |  |  | Cc1sc2c(c1C)C(c1ccc(Cl)cc1)=N[C@@H](CC(=O)NCCCOCCOCCOCCCNC(=O)COc1cccc3c1C(=O)N(C1CCC(=O)NC1=O)C3=O)c1nnc(C)n1-2 (stereo partly shown) [dBET9] | 1550 | 8420 | 296 | 1520 |  |
|  |  |  |  |  |  |  | 12 | 22 | 1200 | CCC(C)(C)C(=O)C(=O)N1CCC[C@H]1C(=O)O[C@H](CCc1ccc(OC)c(OC)c1)c1cccc(OCC(=O)NCCCCNC(=O)COc2cccc3c2C(=O)N(C2CCC(=O)NC2=O)C3=O)c1 (stereo partly shown) [dFKBP-3] |  |  |  |  |  |
| 20 | 25.3 | 73.1 | 25 | 309 | 452 | 28 |  |  |  | CC[C@@H]1C(=O)N(C)c2cnc(Nc3ccc(C(=O)NCCCOCCOCCOCCCNC(=O)COc4cccc5c4C(=O)N(C4CCC(=O)NC4=O)C5=O)cc3OC)nc2N1C1CCCC1 (stereo partly shown) [dBET10] | 152 | 413 | 163 | 271 | IC50 (CRBN-DDB1): 12.7 nM; IC50 (BRD4 [1]; read-out: BRD4 Alpha (IC50)): 83 nM; IC50 (BRD4 [1]; read-out: IC50 (nM) BRD4): 83 nM; IC50 (PLK1): 10.2 nM; Conc@Emax [3]: 50 µM; EC50 (CRBN): 8120 nM |
|  |  |  |  |  |  |  | < 5 | 11 | 2290 | COc1ccc(CC[C@@H](OC(=O)[C@@H]2CCCCN2C(=O)Cc2ccccc2)c2cccc(OCC(=O)NCCCCNC(=O)COc3cccc4c3C(=O)N(C3CCC(=O)NC3=O)C4=O)c2)cc1OC (stereo partly shown) [dFKBP-5] |  |  |  |  |  |

| Structure (SMILES) | Dmax (BRD4 [2]; [7]) [%] | Dmax [3, 8] [%] | Emax ([3]; BRD4 remaining at Emax) [%] | Dmax [3, 9] [%] | IC50 (BRDT; read-out: IC50 (nM) BRDT) [nM] | IC50 (MOLT4) [nM] | IC50 (MV4; 11) [nM] | Dmax [5] [%] | Dmax [6] [%] | IC50 (FKBP12 (36V)) [nM] | IC50 (CUTL1) [nM] | IC50 (NGP; NGP cells, Table 4) [nM] | IC50 797 [nM] | IC50 (DND41) [nM] | further results |
| --- | --- | --- | --- | --- | --- | --- | --- | --- | --- | --- | --- | --- | --- | --- | --- |
| CC[C@@H]1C(=O)N(C)c2cnc(Nc3ccc(C(=O)NCCCCCCNC(=O)COc4cccc5c4C(=O)N(C4CCC(=O)NC4=O)C5=O)cc3OC)nc2N1C1CCCC1 (stereo partly shown) [dBET7] | 63 | 54.1 | 43.7 | 54 | 549 | 46.6 |  |  |  |  | 29.2 | 131 | 16 | 31.4 | Conc@Emax [3]: 0.5 µM |
| Cc1sc2c(c1C)C(c1ccc(Cl)cc1)=N[C@@H](CC(=O)NCCCCCCNC(=O)c1ccc3c(c1)C(=O)N(C1CCC(=O)NC1=O)C3=O)c1nnc(C)n1-2 (stereo partly shown) [dBET15] |  |  |  | 18 |  | 6960 | 312 |  |  |  | 6840 |  | 1270 | 10400 | IC50 (NGP; NGP): > 20000 nM; Dmax (BRD4 [2]; HEK-293T, read-out: BRD4 max degradation(%) Cell Western): 24%; Emax [3]: 78.2%; Dmax ([3]; read-out: max degradation (dual luc)): 18.2%; IC50 (BRDT): 93 nM |
| CCC(C)(C)C(=O)C(=O)N1CCCC[C@H]1C(=O)O[C@H](CCc1ccc(OC)c(OC)c1)c1cccc(OCC(=O)NCCCCNC(=O)COc2cccc3c2C(=O)N(C2CCC(=O)NC2=O)C3=O)c1 (stereo partly shown) [dFKBP-4] |  |  |  |  |  |  |  | 21 | 34 | 369 |  |  |  |  | DC50 [6]: 2.97 nM |
